# Experimental data: patent EP0005015B1, “Use of a xanthine derivate in the manufacture of a medicament” (BEECHAM - WUELFING GmbH & Co. KG, priority 1978, dated 1979)
# Where “and” joins values, the source holds several entries; their conditions need not be identical. Equal values may be shown once.
# Tests used:
# [1] = system: ischaemic skeletal muscle; assay: pO2 measurement in ischaemic skeletal muscle (m. gastrocnemius, femoral artery ligated), Pt-needle electrodes; type: in vivo, Cat
# Experimental: (§1) Cats of either sex were anaesthetized with urethane/chloralose (120/60 mg/kg i.p. In the course of the experiments, pentobarbital was injected intravenously (V. antebrachii ceph.) via a plastic tube. The intraduodenal (i.d.) application of compound weas conducted by means of a plastic catheter, which was inserted into the duodenum.
# The reference electrode, and Ag/AgCl system was sputtered on the glass mantle of the cathode, or it was a separate electrode. The cathode was coated with a polystyrol and a collodium membrane. A constant voltage supply provided a polarizing voltage between 600 and 800 mV. The reducing current was measured by a nano-ampere amplifying meter. The- cathode was inserted in the tissue by means of a motor-driven micromanipulator.
# A p02― electrode was inserted in the muscle tissue (m. gastrocnemius) of both hindlegs of an anaesthetized cat. After recording the p02 of the normal perfused muscle, the blood flow to one measuring site was restricted by ligating the femoral artery. […] After having reached a constant level of p02, the vehicle was given, followed by the test substance.
# The mean value and the standard deviation were calculated, in order to check the significance of the effect.
# skeletal muscle = assay: pO2 measurement in the control (non-ligated) hind limb muscle; type: in vivo, Cat; conditions: individual cats
# Experimental: A p02― electrode was inserted in the muscle tissue (m. gastrocnemius) of both hindlegs of an anaesthetized cat. After recording the p02 of the normal perfused muscle, the blood flow to one measuring site was restricted by ligating the femoral artery. […] The values were constant after 30 to 60 min. After having reached a constant level of p02, the vehicle was given, followed by the test substance.
# [2] = system: ischaemic skeletal muscle; assay: Skeletal muscle contractility with restricted femoral blood flow; type: in vivo, Cat
# Experimental: as §1
# Cats of either sex were anaesthetized as for p02 measurement. After dissection of the skin of the calf muscles, the sciatic nerve was cut about 3 cm proximal to the knee. The tendon of the calf muscles was cut and connected with an isometric force transducer (SWEMA, SG 3). In order to maintain constant differences and a resting tension of 100 p, the hind limb was fixed at the tibia by means of a clamp. Direct stimulation of the muscles consisted of square wave pulses of a 4 msec duration at a frequency of 2 Hz and at a voltage of 50 V. In order to keep the muscles wet and at a normal temperature, the muscles were continuously superfused by means of a NaCI-solution (0.9%, 38°C). Femoral blood flow was restricted by a graded occlusion of the artery leading to a reduction of contractility by ca. 30%. After having reached a constant level of the contraction force, the vehicle (NaCI and Methocel®, respectively) was injected, followed by the test substance.
# [3] = Blood pressure changes during the contractility experiment; type: in vivo, Cat
# [4] = Acute oral toxicity (LD50); conditions: mouse, in vivo; mice, per oral
# [5] = Solubility in aqueous media; type: physicochemical
smiles,measurement,setting,value
"CC(=O)CCCCn1c(=O)c2c(ncn2C)n(C)c1=O [Compound B, pentoxyphylline]",effect of Compound B 5 mg/kg i.v. ΔpO2 (Torr),"[1]; hind limb art. lig., 5 mg/kg i.v., individual cats",1.3 (p≤0.01) Torr and 1.6 (p≤0.01) Torr and 4.9 (p≤0.01) Torr and 7.3 (p≤0.01) Torr
same,effect of Compound B in relation to Compound A (%),"[1]; hind limb art. lig., B 5 mg/kg i.v. vs A 125 μg/kg i.v., individual cats",22.9% and 26.6% and 0% (2×) and 17.9% and 65.6%
same,pO2 (mmHg) (increase),"[1]; i.d., 12.5 mg/kg",3 (12.5 mg) mmHg
same,pO2 (mmHg) (increase),"[1]; i.v., 5 mg/kg",2 (5 mg) mmHg
same,effect of Compound B in relation to Compound A (%),skeletal muscle; B 5 mg/kg i.v. vs A 125 μg/kg i.v.,74.3% and 0% (3×) and 27%
same,contractility (% initial value),"[2]; i.d., 32 mg/kg",23 (32 mg) % initial value
same,contractility (% initial value),"[2]; i.v., 5 mg/kg",9 (5 mg) % initial value
"CCCCn1c(=O)c2c(ncn2CC(C)=O)n(CCCC)c1=O [Compound A, 1,3-di-n-butyl-7-(2-oxopropyl)xanthine]",effect of Compound A 125 μg/kg i.v. ΔpO2 (Torr),"[1]; hind limb art. lig., 125 μg/kg i.v., individual cats",5.6 (p≤0.01) Torr and 6.2 (p≤0.01) Torr and 7.3 (p≤0.01) Torr and 5.2 (p≤0.01) Torr and 27.1 (p≤0.01) Torr and 11.2 (p≤0.01) Torr
same,pO2 (mmHg) (increase),"[1]; i.d., 50 µg/kg",4 (50 µg) mmHg
same,pO2 (mmHg) (increase),"[1]; i.v., 125 µg/kg",10 (125 µg) mmHg
same,effect of Compound A 125 μg/kg i.v. ΔpO2 (Torr),skeletal muscle; 125 μg/kg i.v.,19.3 (p≤0.01) Torr and 3.4 (p≤0.01) Torr and 13.2 (p≤0.01) Torr and 3.8 (p≤0.01) Torr and 3.5 (p≤0.01) Torr
same,"t (min), time interval to reach initial values, muscle contract.",[2]; 50 µg/kg i.v.,>60 min
same,"t (min), time interval to reach initial values, muscle contract.",[2]; 125 µg/kg i.v.,>60 min
same,"t (min), time interval to reach initial values, muscle contract.","[2]; 313 µg/kg i.v., n = 1",>60 min
same,Δ muscle contract.,"[2]; 313 µg/kg i.v., n = 1",+25.0 n = 1 percentage of initial values
same,contractility (% initial value),"[2]; i.d., 125 µg/kg",32 (125 µg) % initial value
same,contractility (% initial value),"[2]; i.v., 50 µg/kg",36 (50 µg) % initial value
same,"t (min), time interval to reach initial values, initial phase BP decrease",[3]; 50 µg/kg i.v.,2 min
same,"t (min), time interval to reach initial values, second phase BP increase",[3]; 50 µg/kg i.v.,33 min
same,"t (min), time interval to reach initial values, initial phase BP decrease",[3]; 125 µg/kg i.v.,3 min
same,"t (min), time interval to reach initial values, second phase BP increase",[3]; 125 µg/kg i.v.,32 min
same,Δ second phase BP increase X̄ ± S,[3]; 125 µg/kg i.v.,+10.8 ± 8.3 percentage of initial values
same,"t (min), time interval to reach initial values, initial phase BP decrease","[3]; 313 µg/kg i.v., n = 1",2 min
same,"t (min), time interval to reach initial values, second phase BP increase","[3]; 313 µg/kg i.v., n = 1",6 min
same,Δ initial phase BP decrease,"[3]; 313 µg/kg i.v., n = 1",−25.0 n = 1 percentage of initial values
same,Δ second phase BP increase,"[3]; 313 µg/kg i.v., n = 1",+15.0 n = 1 percentage of initial values
same,LD50,[4],> 1000 mg/kg
same,solubility in aqueous media,[5],only sparingly soluble
"CCCCn1c(=O)c2c(ncn2CCC(C)=O)n(CCCC)c1=O [Compound C, 1,3-di-butyl-7-(3-oxobutyl)xanthine, reference compound]",pO2 (mmHg) (increase),"[1]; i.d., 32 mg/kg",6 (32 mg) mmHg
same,contractility (% initial value),"[2]; i.d., 12.5 mg/kg",22 (12.5 mg) % initial value
